{"source": "patent US20100273656A1", "about": "“COMPOSITION AND METHOD FOR SELECTIVE HERBICIDE” (priority 2002, published 2010)", "key": {"grass [1]": {"test_system": "grass", "assay": "Example 1 field test of iron chelates, grass damage", "assay_type": "in vivo", "conditions": "in vivo", "procedure": "(§1) The following non-limiting examples serve to further describe the invention. Unless otherwise specified, all of the iron solutions were made using the same molar concentration of iron ion as chelating agent. All of the outside tests were done on areas of mixed grass and dandelions that were at least 2 months old. For the greenhouse tests, dandelions were grown in a commercial greenhouse mix, using supplemental lighting and heating. Each plant was grown in a 2¼ inch pot to a minimum diameter of 20 cm. All of the solutions were sprayed onto the plants at a rate of 100 ml/m^2. The ferrous sulfate formulations that were used in examples 1, 2, 8 and 9 contained 1% iron (180 mM), 18 mM EDTA, 1% citric acid and 0.5% urea. In all of the examples, the amount of iron is identified in brackets as the percent iron on a weight basis.\n(§2) All plant damage was assessed using a qualitative rating scale from 0 to 9.\n(§3) All of the iron chelates were sprayed once at 0.2% Fe^+3 (35.8 mM), at a volume of 100 ml/m^2 onto 0.5 m^2 areas of mixed grass and dandelions. The spraying of the test was followed by 2 days of rain-free weather. Observations were made 5 days after spraying."}, "dandelions [2]": {"test_system": "dandelions", "assay": "Example 1 field test of iron chelates, dandelion damage", "assay_type": "in vivo, Taraxacum officinale", "conditions": "sprayed once at 100 ml/m^2, 5 days after spraying", "procedure": "as §1, §2, §3"}, "grass [3]": {"test_system": "grass", "assay": "Example 2 field test of FeEDDS and FeHEDTA at pH 3 and 7, grass", "assay_type": "in vivo", "conditions": "in vivo", "procedure": "as §1, §2\nThe FeEDDS and FeHEDTA solutions contained 0.2% Fe^+3 (35.8 mM). The ferrous sulfate contained 1% Fe^+2 (179.1 mM). The solutions were sprayed at a rate of 0.1 L/m^2 onto 2 plots of 0.5 m^2 of mixed grass and dandelions. Observations were made 4 days after spraying."}, "dandelions [4]": {"test_system": "dandelions", "assay": "Example 4 effect of pH on FeHEDTA, greenhouse dandelions", "assay_type": "in vivo, Taraxacum officinale", "conditions": "for Dead (#/10): 8 + 5 days after spraying", "procedure": "as §1, §2\nThis test compared the effects of FeHEDTA at a range of pH values to potted, greenhouse-grown dandelions. All of the solutions were applied at 0.2% Fe^+3 (35.8 mM). Ammonium sulfate was added at 2%. The plants were re-sprayed after 8 days."}, "[5]": {"test_system": "dandelion (Taraxacum officinale)", "assay": "Example 12 FeHEDTA field test, dandelion", "assay_type": "in vivo", "conditions": "for Survival of Dandelion Plants (%): day 7/day 0", "procedure": "This test evaluated FeHEDTA with 0.15% and 0.2% Fe for controlling the chickweed scarlet pimpernel (Anagallis arvensis) and dandelion (Taraxacum officinale). The solution contained 1.3 times the molar amount of chelating agent as iron. Field areas of well established chickweed and dandelion (0.5 m^2) were sprayed at a rate of 100 ml/m^2."}, "grass [6]": {"test_system": "grass", "assay": "Example 13 field test, grass", "assay_type": "in vivo", "procedure": "Killex® (Green Cross, Ontario, Canada) is a commonly used selective lawn herbicide and was included in several field tests as a standard. Killex contains 2,4-D (9.5%), mecoprop (5%) and dicamba (0.9%). The product was diluted 6 ml into 1 L of water solution and applied at rate of 200 ml/m^2, as per label instructions.\nThis test evaluated FeEDDS (0.4% Fe^+3) and FeHEDTA (0.2% Fe^+3) for controlling the weed hairy cat's ear (Hypochoeris radicata), also known as “false dandelion”, grown in areas of mixed grass and Hypochoeris. The iron solutions were sprayed at a rate of 100 ml/m^2 to 1.0 m^2 plots. The iron treatments were resprayed after 7 and 14 days. Killex (Solaris ON, Canada) was diluted and applied once as per label instructions of 6 ml /L applied at 200 ml/m^2."}, "perennial ryegrass": {"test_system": "perennial ryegrass", "assay": "Example 21 Fe chelates with Killex, perennial ryegrass", "assay_type": "in vivo", "conditions": "A29 = 29 days after treatment", "procedure": "Plants were fertilized with an all purpose water-soluble fertilizer mix of 20-20-20 (N-P-K; Plant-Prod®) as needed. All broadleaf weeds were grown individually in a 2¼-inch pot until they were a suitable size for herbicide tests (actual weed size is reported in examples below). Perennial ryegrass was also grown in 2¼-inch pots, however many grass seeds were sown in the pot to simulate a small section of turf. Grass plants were continually trimmed to a height of 4 cm, simulating that of a homeowner's lawn. For field tests, plots ¼ m^2 in size were marked out in areas containing the targeted broadleaf weed species growing in turf grass. Plots were continually mowed to simulate a homeowner's lawn. […] In all of the examples, the amounts of the various herbicide components are identified as a percent on a weight basis.\nKillex® (Scotts Canada, Ltd., Ontario, Canada) is a commonly used selective lawn herbicide and was used as the commercial herbicide for herbicide combinations. The labeled dilution and application rates for Killex® are 6 ml into 1 L of solution (0.6%) applied at 200 ml/m^2.\nAll visual plant damage assessments were made using a quantitative rating scale; percent control relative to the untreated check (0=no effect; 100=plant death).\nMaterials and Methods: This trial was conducted in the greenhouse. […] Phytotoxicity (%) was assessed 29 days after treatment (A29)."}}}
{"compound": "O=C([O-])CN(CCO)CCN(CC(=O)[O-])CC(=O)[O-].[Fe+3]", "note": "[FeHEDTA]", "values": [{"measurement": "Grass Damage (0 to 9)", "setting": "grass [1]", "result": 0}, {"measurement": "Dandelion Damage (0 to 9)", "setting": "dandelions [2]", "result": "8.9 0 to 9"}, {"measurement": "Grass Damage (0 to 9)", "setting": "grass [3]; pH 2.6", "result": "0.0 0 to 9"}, {"measurement": "Grass Damage (0 to 9)", "setting": "grass [3]; pH 7", "result": "1.0 0 to 9"}, {"measurement": "Plant Damage (0 to 9)", "setting": "dandelions [4]; 8 + 5 days after spraying (re-sprayed after 8 days), listed as FeHEDTA pH 3 (0.2% Fe)", "result": "6.8 0 to 9"}, {"measurement": "Plant Damage (0 to 9)", "setting": "dandelions [4]; 8 + 5 days after spraying (re-sprayed after 8 days), listed as FeHEDTA pH 5 (0.2% Fe)", "result": "5.4 0 to 9"}, {"measurement": "Plant Damage (0 to 9)", "setting": "dandelions [4]; 8 + 5 days after spraying (re-sprayed after 8 days), listed as FeHEDTA pH 7 (0.2% Fe)", "result": "5.1 0 to 9"}, {"measurement": "Plant Damage (0 to 9)", "setting": "dandelions [4]; 8 + 5 days after spraying (re-sprayed after 8 days), listed as FeHEDTA pH 9 (0.2% Fe)", "result": "3.6 0 to 9"}, {"measurement": "Plant Damage (0 to 9)", "setting": "dandelions [4]; 8 + 5 days after spraying (re-sprayed after 8 days), listed as FeHEDTA pH 11 (0.2% Fe)", "result": "6.6 0 to 9"}, {"measurement": "Dead (#/10)", "setting": "dandelions [4]; listed as FeHEDTA pH 3 (0.2% Fe)", "result": "5 #/10"}, {"measurement": "Dead (#/10)", "setting": "dandelions [4]; listed as FeHEDTA pH 5 (0.2% Fe)", "result": "3 #/10"}, {"measurement": "Dead (#/10)", "setting": "dandelions [4]; listed as FeHEDTA pH 7 (0.2% Fe)", "result": "2 #/10"}, {"measurement": "Dead (#/10)", "setting": "dandelions [4]; listed as FeHEDTA pH 9 (0.2% Fe)", "result": "1 #/10"}, {"measurement": "Dead (#/10)", "setting": "dandelions [4]; listed as FeHEDTA pH 11 (0.2% Fe)", "result": "5 #/10"}, {"measurement": "Plant Damage (0 to 9)", "setting": "dandelions [4]; 7 days after spraying, listed as FeHEDTA pH 3 (0.2% Fe)", "result": "3.2 0 to 9"}, {"measurement": "Plant Damage (0 to 9)", "setting": "dandelions [4]; 7 days after spraying, listed as FeHEDTA pH 5 (0.2% Fe)", "result": "2.6 0 to 9"}, {"measurement": "Plant Damage (0 to 9)", "setting": "dandelions [4]; 7 days after spraying, listed as FeHEDTA pH 7 (0.2% Fe)", "result": "1.9 0 to 9"}, {"measurement": "Plant Damage (0 to 9)", "setting": "dandelions [4]; 7 days after spraying, listed as FeHEDTA pH 9 (0.2% Fe)", "result": "2.0 0 to 9"}, {"measurement": "Plant Damage (0 to 9)", "setting": "dandelions [4]; 7 days after spraying, listed as FeHEDTA pH 11 (0.2% Fe)", "result": "3.8 0 to 9"}, {"measurement": "Dandelion Plants (#/0.5 m^2)", "setting": "[5]; 7 days after spraying, listed as FeHEDTA (0.15% Fe)", "result": "19 #/0.5 m^2"}, {"measurement": "Dandelion Plants (#/0.5 m^2)", "setting": "[5]; 7 days after spraying, listed as FeHEDTA (0.20% Fe)", "result": "24 #/0.5 m^2"}, {"measurement": "numbers of dandelions, in words", "setting": "[5]; Example 12, text", "result": "significantly reduced"}, {"measurement": "Dandelion Plants (#/0.5 m^2)", "setting": "[5]; day 0, listed as FeHEDTA (0.15% Fe)", "result": "57 #/0.5 m^2"}, {"measurement": "Dandelion Plants (#/0.5 m^2)", "setting": "[5]; day 0, listed as FeHEDTA (0.20% Fe)", "result": "84 #/0.5 m^2"}, {"measurement": "Survival of Dandelion Plants (%)", "setting": "[5]; listed as FeHEDTA (0.15% Fe)", "result": 33, "unit": "%"}, {"measurement": "Survival of Dandelion Plants (%)", "setting": "[5]; listed as FeHEDTA (0.20% Fe)", "result": 29, "unit": "%"}, {"measurement": "Area Covered by Hairy Grass (%)", "setting": "grass [6]; day 0", "result": 15, "unit": "%"}, {"measurement": "Relative Grass Area (Start = 100%)", "setting": "grass [6]; day 0", "result": 100, "unit": "%"}, {"measurement": "Area Covered by Hairy Grass (%)", "setting": "grass [6]; day 6", "result": 47, "unit": "%"}, {"measurement": "Relative Grass Area (Start = 100%)", "setting": "grass [6]; day 6", "result": 313, "unit": "%"}, {"measurement": "Area Covered by Hairy Grass (%)", "setting": "grass [6]; day 8", "result": 40, "unit": "%"}, {"measurement": "Relative Grass Area (Start = 100%)", "setting": "grass [6]; day 8", "result": 267, "unit": "%"}, {"measurement": "Area Covered by Hairy Grass (%)", "setting": "grass [6]; day 15", "result": 50, "unit": "%"}, {"measurement": "Relative Grass Area (Start = 100%)", "setting": "grass [6]; day 15", "result": 333, "unit": "%"}, {"measurement": "Area Covered by Hairy Grass (%)", "setting": "grass [6]; day 18", "result": 46, "unit": "%"}, {"measurement": "Relative Grass Area (Start = 100%)", "setting": "grass [6]; day 18", "result": 307, "unit": "%"}, {"measurement": "Phytotoxicity (%) on perennial ryegrass", "setting": "perennial ryegrass", "result": 0, "unit": "%"}]}
